Patent US20110275675A1, “Antimicrobial Dental Materials” (IVOCLAR VIVADENT AG, priority 2010, published 2011)
“Also recorded” adds a separate entry of the source.

Columns and labels:
[1] = Influence on radical polymerization: chemical hardening of Systemp.link; format: physicochemical; conditions: 3.0 wt.-%
Protocol: 3.0 wt.-% triclosan or 3.0 wt.-% of the antimicrobial active ingredient of formula (Ia) was incorporated into the base paste of the commercially available composite-based temporary fixing cement Systemp.link (Ivoclar Vivadent AG), which hardens radically. The processing time (PT), setting time (ST) and Shore D hardness in the case of chemical hardening were then determined.

[2] = test system: Streptococcus mutans; experiment: Agar plate zone of inhibition test; format: cell-based, S. mutans DSM20723; conditions: 24 h at 37° C./5% CO2
Excerpt: To determine the antimicrobial action of a temporary dental cement with the active ingredient of formula (Ia), 3.0 wt.-% of the active ingredient of formula (Ia) was incorporated into the commercially available cement Systemp.link (Ivoclar Vivadent AG). Round testpieces with a diameter of 10 mm and a thickness of 2 mm were then shaped into small plates with the corresponding material and then cured. Testpieces made of Systemp.link without active ingredient and also with 1.0 and 3.0 wt.-% triclosan served as reference. After this, the antimicrobial action on the bacterial strain Streptococcus mutans was studied. The agar plate zone of inhibition test was used for this.
Bacterial strain: S. mutans DSM20723 Cultivation medium: BHI broth
100 μl undiluted S. mutans culture solution was plated out onto agar plates. The testpieces were then placed on the agar plates. After 24 h storage at 37° C./5% CO2, the plates were assessed.

[3] = Through-curing depth of light-curing composite filling material; format: physicochemical; conditions: 3.0 or 5.0 wt.-%
Protocol: A composite filling material with the following composition was prepared:
3.0 wt.-% or 5.0 wt.-% of the antimicrobial active ingredient of formula (Ia) was incorporated into the composite filling material. After 20 s exposure to light with a dental polymerization light (Bluephase®, Ivoclar Vivadent AG), the through-curing depth was determined. For comparison, the antimicrobial active ingredients triclosan and chlorhexidine diacetate were also incorporated into the composite material in a quantity of 3.0 wt.-% or 5.0 wt.-% and the through-curing depth determined (see Table 5 for results).

[4] = Hardening on exposure to dental polymerization light; format: physicochemical; conditions: 20 s exposure to light (Bluephase); 0.2 or 0.5 wt.-% Ia in Fermit
Protocol: (§1) 0.2 wt.-% or 0.5 wt.-% of the antimicrobial active ingredient of formula (Ia) was incorporated into the commercially available composite-based temporary filling material Fermit (Ivoclar Vivadent AG). […] The Shore D hardness was then determined (see Table 4 for results).

[5] = Hardening properties of composite-based temporary cement (Systemp.link); format: physicochemical; conditions: 0.3 or 3.0 wt.-%
Protocol: (§2) 0.3 wt.-% or 3.0 wt.-% of the antimicrobial active ingredient of formula (Ia) was incorporated into the base paste of the commercially available composite-based temporary fixing cement Systemp.link (Ivoclar Vivadent AG). The processing time (PT), setting time (ST) and Shore D hardness were then determined.

[6] = Shore D hardness of temporary filling material (Fermit); format: physicochemical; conditions: 0.2 or 0.5 wt.-%
Protocol: as §1

[7] = Hardening properties of temporary cement based on polycarboxylate/zinc oxide (Systemp.cem); format: physicochemical; conditions: 0.3 or 3.0 wt.-%
Protocol: as §2, with “initiator” for “base”, “available” for “available composite-based”, “based on polycarboxylate/zinc oxide Systemp.cem” for “Systemp.link”

[8] = 3.0 wt.-% active ingredient in cured Systemp.link small plates

SMILES | Influence on the chemical hardening of Systemp.link [1] | Formation of zones of inhibition ([2]; 1.0 wt.-% active ingredient in cured Systemp.link small plates) | Formation of zones of inhibition [2, 8] | Influence on the through-curing depth of the composite material [3] | Hardening after exposure to light [4] | Influence on the hardening of Systemp.link [5] | Influence on the hardening of Fermit [6] | Influence on the hardening of Systemp.cem [7]
Oc1cc(Cl)ccc1Oc1ccc(Cl)cc1Cl [triclosan, 2,4,4′-trichloro-2′-hydroxydiphenylether] | completely inhibited | does not bring about a formation of zones of inhibition; also recorded: zones of inhibition do not form | does not bring about a formation of zones of inhibition; also recorded: zones of inhibition do not form | dramatically reduced |  |  |  | 
CCCCCCCCNc1cc[n+](CCCCCCCCCC[n+]2ccc(NCCCCCCCC)cc2)cc1 [Ia] | does not have a significant negative influence |  | clear zones of inhibition | does not have a significant negative influence | hardened completely | does not have a significant negative influence | does not have a significant negative influence | does not have a significant negative influence
CC(=O)O.CC(=O)O.NC(=N\CCCCCC/N=C(N)/N=C(\N)Nc1ccc(Cl)cc1)/N=C(\N)Nc1ccc(Cl)cc1 [chlorhexidine diacetate] |  |  |  | dramatically reduced |  |  |  | 
